According to ChEMBL document CHEMBL4765442, “Anti-Giardia Drug Discovery: Current Status and Gut Feelings” (J Med Chem, 2020):
Converted amounts (≈) assume the structure as drawn.

Columns and labels:
[1] = test system: Giardia intestinalis; test: Antigiardial activity against Giardia intestinalis WB incubated for 48 hrs by hemocytometric counting method; type: functional, organism-based; settings: Giardia duodenalis
[2] = test system: Giardia intestinalis; test: Antigiardial activity against Giardia intestinalis N1-INP incubated for 48 hrs followed by hemocytometric counting method; type: functional, organism-based; settings: Giardia duodenalis
[3] = test system: Giardia intestinalis; test: Antigiardial activity against Giardia intestinalis WB30957 incubated for 48 hrs followed by hemocytometric counting method; type: functional, organism-based; settings: Giardia duodenalis, WB30957, 48 h
[4] = test system: Giardia intestinalis; test: Antigiardial activity against Giardia intestinalis IMSS-1090-1 incubated for 48 hrs followed by hemocytometric counting method; type: functional, organism-based; settings: Giardia duodenalis, IMSS-1090-1, 48 h
[5] = test system: Giardia intestinalis; test: Antigiardial activity against Giardia intestinalis UNAM-0688-2 incubated for 48 hrs followed by hemocytometric counting method; type: functional, organism-based; settings: Giardia duodenalis, UNAM-0688-2, 48 h
[6] = test system: Giardia intestinalis; test: Antigiardial activity against Giardia intestinalis BRIS/91/HEPU/1411 incubated for 48 hrs followed by compound wash out by hemocytometric counting method; type: functional, organism-based; settings: Giardia duodenalis, BRIS/91/HEPU/1411, 48 h
[7] = test system: Giardia intestinalis; test: Antigiardial activity against Giardia lamblia P1 incubated for 48 hrs by haemocytometric counting method; type: functional, organism-based; settings: Giardia duodenalis, P1, 48 h
[8] = test system: Giardia intestinalis; test: Antigiardial activity against Giardia lamblia WB incubated for 48 hrs by microscopic method; type: functional, organism-based; settings: Giardia duodenalis
[9] = test system: Giardia intestinalis; test: Antigiardial activity against Giardia lamblia H/7 incubated for 48 hrs by microscopic method; type: functional, organism-based; settings: Giardia duodenalis, H/7, 48 h
[10] = Half-life of the compound; type: physicochemical
[11] = test system: Giardia intestinalis; test: Antigiardial activity against Giardia intestinalis IMSS:0696:1 incubated for 48 hrs followed by wash out by hemocytometric counting method; type: functional, organism-based; settings: Giardia duodenalis, IMSS:0696:1, 48 h
[12] = test system: Giardia intestinalis; test: Antigiardial activity against Giardia intestinalis WB ATCC 30957 incubated for 72 hrs by hemocytometric counting method; type: functional, organism-based; settings: Giardia duodenalis, WB ATCC 30957, 72 h
[13] = test system: Giardia intestinalis; test: Antigiardial activity against Giardia duodenalis GS/M-83-H7 (ATCC 50581) incubated for 3 days by fluorescence method; type: functional, organism-based; settings: 72 h
[14] = test system: Giardia intestinalis; test: Antigiardial activity against Giardia duodenalis WB (ATCC 30957) incubated for 3 days by fluorescence method; type: functional, organism-based; settings: WB ATCC 30957, 72 h
[15] = test system: Giardia intestinalis; test: Antigiardial activity against Giardia duodenalis G1 incubated for 3 days by fluorescence method; type: functional, organism-based; settings: G1, 72 h
[16] = test system: Giardia intestinalis; test: Antigiardial activity against Giardia duodenalis Ah1 incubated for 3 days by fluorescence method; type: functional, organism-based; settings: Ah1, 72 h
[17] = test system: Giardia intestinalis; test: Antigiardial activity against Giardia duodenalis Ah2 incubated for 3 days by fluorescence method; type: functional, organism-based; settings: Ah2, 72 h
[18] = test system: Giardia intestinalis; test: Antigiardial activity against Giardia duodenalis Ac1 incubated for 3 days by fluorescence method; type: functional, organism-based; settings: Ac1, 72 h
[19] = test system: Giardia intestinalis; test: Antigiardial activity against Giardia duodenalis Ac2 incubated for 3 days by fluorescence method; type: functional, organism-based; settings: Ac2, 72 h
[20] = test system: Giardia intestinalis; test: Antigiardial activity against Giardia duodenalis Ec1 incubated for 3 days by fluorescence method; type: functional, organism-based; settings: Ec1, 72 h
[21] = test system: Giardia intestinalis; test: Antigiardial activity against Giardia duodenalis Ec2 incubated for 3 days by fluorescence method; type: functional, organism-based; settings: Ec2, 72 h
[22] = test system: Giardia intestinalis; test: Antigiardial activity against Giardia lamblia WB (ATCC 30957) incubated for 3 days by [3H]thymidine incorporation based assay; type: functional, organism-based; settings: Giardia duodenalis
[23] = test system: Giardia intestinalis; test: Growth inhibition of Giardia duodenalis isolate 14-03/F7 measured after 24 hrs by resazurin based assay; type: functional, organism-based; settings: isolate 14-03/F7, 24 h
[24] = test system: Giardia intestinalis; test: Antigiardial activity against Giardia duodenalis BRIS/91/HEPU/1279 incubated for 3 days followed by compound wash-out and measured after 4 days; type: functional; settings: time 3 day
[25] = test system: Giardia intestinalis; test: Antigiardial activity against Giardia duodenalis BRIS/83/HEPU/106 incubated for 3 days followed by compound wash-out and measured after 4 days; type: functional; settings: time 3 day
[26] = test system: Giardia intestinalis; test: Antigiardial activity against metronidazole-resistant Giardia duodenalis BRIS/83/HEPU/106-2ID10 incubated for 3 days followed by compound wash-out and measured after 4 days; type: functional; settings: time 3 day
[27] = test system: Giardia intestinalis; test: Antigiardial activity against metronidazole-resistant Giardia duodenalis WB1B-M3 incubated for 3 days followed by compound wash-out and measured after 4 days; type: functional; settings: time 3 day
[28] = test system: Giardia intestinalis; test: Antigiardial activity against Giardia intestinalis incubated for 48 hrs; type: functional, organism-based; settings: Giardia duodenalis

Work on CSc1nc2cc(Cl)c(C(=O)Nc3ncc([N+](=O)[O-])s3)cc2n1C yielded an IC50 [1] of 10 nM, an IC50 [2] of 71 nM and an IC50 [3] of 10 nM. For the same compound, the IC50 [4] was 10 nM, the IC50 [5] was 10 nM and the IC50 [6] was 10 nM.

With COC(=O)Nc1nc2ccc(C(=O)c3ccccc3)cc2[nH]1 [MEBENDAZOLE] the IC50 [7] was 60 nM, the IC50 [8] was 60 nM and the IC50 [9] was 60 nM. For the same compound, the half-life [10] was 150 min.

For Cc1ncc([N+](=O)[O-])n1CC(C)OC(=O)Nc1ccc(Cl)cc1 (stereo unspecified), the IC50 [11] was 500 nM.

With O=C(/C=C/c1ccc([N+](=O)[O-])o1)N1CCN(c2ccnc3cc(Cl)ccc23)CC1 the IC50 [12] was 145 µM.

Compound Cc1ncc([N+](=O)[O-])n1CCOC(=O)Nc1ccc(F)cc1 has an IC50 [11] of 500 nM.

Compound Cc1ncc([N+](=O)[O-])n1CCO [METRONIDAZOLE] has an IC50 [13] of 500 nM, an IC50 [14] of 500 nM and an IC50 [15] of 500 nM. For the same compound, the IC50 [16] was 500 nM, the IC50 [17] was 500 nM and the IC50 [18] was 500 nM. The IC50 [19] was 500 nM, the IC50 [20] was 500 nM and the IC50 [21] was 500 nM. For the same compound, the IC50 [22] was 500 nM, the IC50 [23] was 6.2 µM and the MLC [24] was 50 µM (≈ 8.56 µg/mL). The MLC [25] was 100 µM (≈ 17.1 µg/mL), the MLC [26] was >500 µM and the MLC [27] was >500 µM. The IC50 [11] was 4400 nM, the IC50 [28] was 1000 nM and the half-life [10] was 360 min.

CCCSc1ccc2nc(NC(=O)OC)[nH]c2c1 [ALBENDAZOLE] gave an IC50 [13] of 55 nM, an IC50 [14] of 55 nM and an IC50 [15] of 55 nM. The IC50 [16] was 55 nM, the IC50 [17] was 55 nM and the IC50 [18] was 55 nM. The IC50 [19] was 55 nM, the IC50 [20] was 55 nM and the IC50 [21] was 55 nM. The half-life [10] was 480 min.
